Entries after “also recorded” stand apart in the source; their conditions may differ.
What was measured:
[1] = molecular target: binding of NMDAR 2B to PSD95 (Homo sapiens, UniProt P78352); settings: reported by Bach; cited from earlier work
PBBI rats [2] = test: Neuroscore after PBBI injury; type: in vivo, rat; settings: Study 1, 0.5 mg/kg i.v. 8 minute infusion 30 minutes after PBBI, 72 hours post-PBBI, vs PBBI/veh
Protocol: (§1) Body weight was assessed at time 0 (baseline), 24, 72 h and 7 days post injury. Body temperature was assessed at time 0, 30 min (prior to treatment), 2, 24, 72 h, and 7 days post injury. Neuroscore was assessed at 0, 30 min (prior to treatment), 24, 72 h, 7 days post injury. Balance beam was assessed at time 0, 3, and 7 days post injury. Rotarod was assessed at time 0 and 7 days post injury.
Columns=means; error bars=SEM; *p<0.05 compared to PBBI; †p<0.05 compared to 0.05 mg/kg Tat-NR2B9c; #p<0.05 compared to 0.275 mg/kg Tat-NR2B9c.

PBBI rats [3] = test: PBBI neuropathology: lesion volume in brain sections (H&E, TTC staining); settings: for overall (total) lesion volume: Study 1, H&E stained sections, 7 days
Protocol: Male Sprague-Dawley rats (250-300 g) were subjected to a simulated ballistic wound to the right frontal hemisphere implemented by an inflatable penetrating probe. Three levels of injury severity were compared to control animals. Neurological and physiological outcome was assessed over a 3-day recovery period and brain tissue collected at 72 h for histopathological evaluation.
Tat-NR2B9c was administered i.v. in the jugular vein by an 8 minute infusion 30 minutes after inducing brain injury. Rats were sacrificed for histologic examination after 7 days. The dose of Tat-NR2B9c was Study I: 0.5 and 5.0 mg/ml/kg and Study II: 0.05, 0.275, and 0.5 mg/ml/kg. The rats were subject to the following treatments in Study I and II (sham=rat not subject to ballistic injury, PBBI=penetrative ballistic brain injury, veh=vehicle).
Study 1 evaluated two concentrations of Tat-NR2B9c (0.5 mg/kg and 5.0 mg/kg) (n=10 each group) with a survival period of 1 week. […] Behavioral and histological endpoints for both experiments included neurological assessments on neuroscore, balance beam, and rotarod tests, and lesion reconstruction on H&E stained sections.
As with the previous experiments, Tat-NR2B9c was administered as a slow bolus (8 minute) 30 minutes after PBBI.

PBBI rats [4] = test: Morris Water Maze (MWM) task after PBBI; type: in vivo, rat; settings: multiple dosing (four injections at 30 minutes, 24, 48 and 72 hours post-PBBI; 0.5 and 5 mg/kg); at 5 or more days
Protocol: FIGS. 6A-D show the effects of multiple dosing regimes on neuroscore, rotarod and MWM performance Animals were given four injections of Tat-NR2B9c post-PBBI at 30 minutes, 24 hours, 48 hours and 72 hours.

PBBI rats [5] = test: Fixed-speed rotarod task after PBBI injury; type: in vivo, rat; settings: for rotarod task recovery: Study 1, 0.50 mg/kg, 7 days post-PBBI
Protocol: as §1
FIGS. 3A and B show dose-response studies on a rotarod. Rats were trained to criteria on the fixed-speed version of the rotarod task prior to PBBI and tested at 7 days post-PBBI. […] Columns=means; error bars=SEM; *p<0.05 compared to PBBI

PBBI rats [6] = test: Body temperature after PBBI and dosing; type: in vivo, rat; settings: approximately 90 minutes following PBBI (60 minutes following dosing)
PBBI rats [7] = test: Balance beam footfaults after PBBI injury; type: in vivo, rat; settings: for footfaults per beam segment contralateral to site of injury / rats unable to cross the beam (assigned maximal footfault scores): 3 days post-PBBI; for rats unable to cross the beam: 7 days post-PBBI
cerebral ischemia = settings: reported in WO 2008/014917; cited from earlier work

Chain of binding of NMDAR 2B to PSD95 (P78352 whole entry, the tested form may be a part): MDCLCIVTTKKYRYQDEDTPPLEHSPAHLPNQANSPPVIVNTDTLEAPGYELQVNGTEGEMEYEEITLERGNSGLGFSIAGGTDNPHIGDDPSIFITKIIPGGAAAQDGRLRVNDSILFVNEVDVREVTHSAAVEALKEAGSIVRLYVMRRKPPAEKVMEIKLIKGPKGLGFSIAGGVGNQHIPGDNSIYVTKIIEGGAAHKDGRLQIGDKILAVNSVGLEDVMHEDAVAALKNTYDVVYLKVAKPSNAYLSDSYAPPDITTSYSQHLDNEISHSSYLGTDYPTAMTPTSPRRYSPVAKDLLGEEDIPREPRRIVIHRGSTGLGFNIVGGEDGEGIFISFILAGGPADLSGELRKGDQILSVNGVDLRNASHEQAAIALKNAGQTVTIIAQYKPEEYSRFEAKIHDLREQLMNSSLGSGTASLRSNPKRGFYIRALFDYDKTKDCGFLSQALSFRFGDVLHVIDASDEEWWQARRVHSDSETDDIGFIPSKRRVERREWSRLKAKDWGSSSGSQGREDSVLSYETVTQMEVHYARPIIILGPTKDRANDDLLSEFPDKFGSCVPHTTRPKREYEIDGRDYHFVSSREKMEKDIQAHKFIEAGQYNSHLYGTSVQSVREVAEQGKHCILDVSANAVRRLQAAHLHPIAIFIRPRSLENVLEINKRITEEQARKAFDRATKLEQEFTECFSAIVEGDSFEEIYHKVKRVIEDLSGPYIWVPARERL

## IESDV (listed as Homo sapiens)
[1]
  inhibition of binding of NMDAR 2B to PSD95: effective in inhibiting binding of NMDAR 2B to PSD95

## YGRKKRRQRRRKLSSIESDV [Tat-NR2B9c]
PBBI rats [2]
  neuroscore (PBBI-induced neurological deficits): significant, reduction in PBBI-induced neurological deficits; also recorded: significantly improved neuroscore
Lyophilized at 1-50 mg/ml in normal saline, with or without excipients
  stability of lyophilized composition: stable at −20 °C or at room temperature
Peptide in normal saline at 10-30 mg/ml, stored frozen
  period of stability (insignificant degradation or aggregation of the peptide): two
PBBI rats [3]; 20 mg/kg, TTC staining, p<0.05 vs PBBI/veh
  total lesion volume: 37±4 mm^3
PBBI rats [3]; 20 mg/kg, TTC staining, vs PBBI/veh
  reduction in total lesion volume: 33%
PBBI rats [3]; 0.5 mg/kg
  overall (total) lesion volume: did not significantly reduce overall lesion volume; also recorded: did not reach a significant neuroprotective effect on total lesion volume
PBBI rats [3]; 5.0 mg/kg
  overall (total) lesion volume: did not significantly reduce overall lesion volume; also recorded: did not reach a significant neuroprotective effect on total lesion volume
PBBI rats [4]
  MWM performance: possibly an improvement in the MWM performance
PBBI rats [5]; 20 mg/kg single slow bolus 30 minutes after PBBI
  mean rotarod latencies across speeds relative to vehicle-treated PBBI rats: > 2 fold
PBBI rats [5]; 20 mg/kg, p<0.05 vs PBBI/veh
  mean rotarod latency across speeds: 29 ± 3 s
PBBI rats [5]; Study 1 (FIG. 3A), 0.5 mg/kg, summary statement
  rotarod performance: significantly improved
PBBI rats [5]; higher speeds (20-25 rpm)
  rotarod task recovery: but not at higher speeds
PBBI rats [5]; two lower speeds (10-15 rpm)
  rotarod task recovery: promoted significant recovery (to SHAM levels)
PBBI rats [6]
  hypothermic effect (measured in the rectum): about 2 degrees C.
PBBI rats [7]; Study 1, 0.5 mg/kg, vs PBBI rats
  footfaults per beam segment contralateral to site of injury: made significantly fewer foot faults than the PBBI rats
PBBI rats [7]; Study 1, 5.0 mg/kg, vs PBBI rats
  footfaults per beam segment contralateral to site of injury: made significantly fewer foot faults than the PBBI rats
PBBI rats [7]; Study 1, high-dose, of 10 animals per group
  rats unable to cross the beam (assigned maximal footfault scores): two
PBBI rats [7]; Study 1, high-dose
  rats unable to cross the beam: one
PBBI rats [7]; Study 1, low-dose, of 10 animals per group
  rats unable to cross the beam (assigned maximal footfault scores): two
PBBI rats [7]; Study 2, 0.275 mg/kg, narrowest beam segment, vs PBBI animals
  footfaults per beam segment contralateral to site of injury: made fewer footfaults than the PBBI animals
PBBI rats [7]; Study 2, 0.50 mg/kg, narrowest beam segment, vs PBBI animals
  footfaults per beam segment contralateral to site of injury: made fewer footfaults than the PBBI animals
PBBI rats [7]; Study 2, high-dose, of 10-11 animals per group
  rats unable to cross the beam (assigned maximal footfault scores): one
PBBI rats [7]; Study 2, low-dose, of 10-11 animals per group
  rats unable to cross the beam (assigned maximal footfault scores): three
PBBI rats [7]; Study 2, low-dose
  rats unable to cross the beam: one
PBBI rats [7]; Study 2, medium-dose, of 10-11 animals per group
  rats unable to cross the beam (assigned maximal footfault scores): one

## vdseissllurrqrrkkrgyin [retro-inverso analog of Tat-NR2B9c]
Cerebral ischemia
  inhibition of cerebral ischemia: effective inhibiting cerebral ischemia
